Source: paper PMC8079060 (Drug Delivery, 2021)
Where “and” joins values, the source holds several entries; their conditions need not be identical. Equal entries are not always repeated.

Experiments:
[1] = Plasma pharmacokinetics after intravenous administration; settings: rats; for Tmax: i.v. NPPA-PTX NPs 6.04 mg kg^−1 (equimolar with 5.00 mg kg^−1 PTX) or Taxol 5.00 mg kg^−1; for Tmax / AUCINF_obs / AUClast / Cmax: plasma
Protocol: Post injection, ∼200 μL blood samples were drawn from the jugular vein at predetermined time points of 0.033, 0.083, 0.25, 0.5, 1, 2, 4, 6, 8, 12, and 24 h post-injection and centrifuged immediately at 3000 rpm for 10 min at 4 °C. […] 200 μL of deionized water was added into the 40 μL supernatants followed by vortexing for 1 min. Finally, the pharmacokinetic data analysis was performed via a liquid chromatography-tandem mass spectrometry (LC-MS/MS Applied Biosystems. Foster City, CA, USA) and pharmacokinetic parameters were acquired by Winnolin 7.0 software.

[2] = Tissue distribution in MDA-MB-231 tumor-bearing nude mice
Protocol: Mice were sacrificed and the tumors and main organs were harvested at 1, 4, 8, and 24 h after administration. Each tissue sample was homogenized in 1 mL acetonitrile and centrifugated.

[3] = system: HCT116 cells; assay: cells; settings: Homo sapiens, HCT-116
Protocol: (§1) Dose-effect curves were constructed and IC50 values were calculated by GraphPad Prism6/SPSS Software.

[4] = system: MDA-MB-231 cells; assay: cells; settings: Homo sapiens
Protocol: as §1

[5] = i.v. NPPA-PTX NPs 6.04 mg kg^−1 or Taxol 5.00 mg kg^−1, mean ± SEM, n = 3

Structure (SMILES) | Tmax ([1]; mean ± SEM, n = 3) [min] | Cl_obs [1, 5] [mL/min/kg] | HL_Lambda_z [1, 5] [h] | MRTlast [1, 5] [h] | Vz_obs (apparent distribution volume) [1, 5] | AUCINF_obs [1, 5] [ng·h/mL] | AUClast [1, 5] [ng·h/mL] | Cmax [1, 5] [ng/mL] | other results
CC(=O)OC1C(=O)C2(C)C(O)CC3OCC3(OC(C)=O)C2C(OC(=O)c2ccccc2)C2(O)CC(OC(=O)C(OC(=O)CCc3ccccc3[N+](=O)[O-])C(NC(=O)c3ccccc3)c3ccccc3)C(C)=C1C2(C)C (centres unmarked) [NPPA-PTX, 3-(2-nitrophenyl) propionic acid-paclitaxel] | 2 ± 0 | 33.17 ± 16.4 | 7.45 ± 0.915 | 2.91 ± 0.280 | 20,700 mL kg^−1 and 20,700 ± 9320 mL kg^−1 | 3930 ± 2710 | 3810 ± 2640 | 4580 ± 2140 | MRTINF_obs (mean residence time) [1, 5]: 3.90 ± 0.656 h; AUC tissue/plasma ([2]; Heart): 0.65; AUC tissue/plasma ([2]; Kidney): 0.79; AUC tissue/plasma ([2]; Liver): 3.17; AUC tissue/plasma ([2]; Lung): 0.55; AUC tissue/plasma ([2]; Spleen): 0.35; AUC tissue/plasma ([2]; plasma): 1.00; AUC tissue/plasma ([2]; tumor): 0.45
CC(=O)OC1C(=O)C2(C)C(O)CC3OCC3(OC(C)=O)C2C(OC(=O)c2ccccc2)C2(O)CC(OC(=O)C(O)C(NC(=O)c3ccccc3)c3ccccc3)C(C)=C1C2(C)C (centres unmarked) [PTX from Taxol] | 2 ± 0 | 19.5 ± 6.63 | 5.86 ± 1.24 | 2.50 ± 0.545 | 10,300 mL kg^−1 and 10,300 ± 5480 mL kg^−1 | 4560 ± 1310 | 4480 ± 1310 | 8600 ± 2500 | –
CC(=O)OC1C(=O)C2(C)C(O)CC3OCC3(OC(C)=O)C2C(OC(=O)c2ccccc2)C2(O)CC(OC(=O)C(O)C(NC(=O)c3ccccc3)c3ccccc3)C(C)=C1C2(C)C (centres unmarked) [PTX released from NPPA-PTX] | 2 ± 0 | 127.5 ± 34.17 | 9.53 ± 5.82 | 7.38 ± 0.817 | 93,700 ± 26,400 mL kg^−1 | 837 ± 264 | 695 ± 99.6 | 99.0 ± 29.2 | MRT compared to that of PTX from Taxol ([1]; i.v.): 4 fold; Vz_obs (apparent distribution volume) ([1]; i.v. NPPA-PTX NPs 6.04 mg kg^−1 or Taxol 5.00 mg kg^−1, mean ± SEM, n = 3, listed as released PTX from NPPA-PTX): 93,700 mL kg^−1; AUC0–24h in plasma compared with PTX from Taxol ([2]; plasma): lower values (about three tenths); AUC0–24h in tumor compared with PTX from Taxol ([2]; tumor): equivalent values
CC(=O)O[C@H]1C(=O)[C@@]2(C)[C@H]([C@H](OC(=O)c3ccccc3)[C@]3(O)C[C@H](OC(=O)[C@H](O)[C@@H](NC(=O)c4ccccc4)c4ccccc4)C(C)=C1C3(C)C)[C@]1(OC(C)=O)CO[C@@H]1C[C@@H]2O [PTX, paclitaxel] | – | – | – | – | – | – | – | – | IC50 [3]: 300 ± 20 nM; IC50 [4]: 63 ± 3.3 nM
